# Experimental data from US20230405003A1, “APPLICATION OF THYMIDINE DERIVATIVE IN PREPARATION OF DRUGS” (ONQUALITY PHARMACEUTICALS CHINA LTD., priority 2020, published 2023).
# Test system: HaCaT cells
# Assay: Relief of 5-FU proliferative toxicity to HaCaT cells (CCK-8 cell survival)
# Type: cell-based
# Details: Homo sapiens, HaCaT; increase vs Group of 5-FU; 5-FU 20 μM; compound 1 μM; 48 h; read-out: Cell Survival Rate
# Method: The cultured skin cell HaCaTs were digested, counted, and inoculated into a 96-well plate with 5000-10000 cells in each well. After 24 h of culture, the wells were divided into Group of blank solvent control, Group of 5-FU, Group of 5-FU+thymidine derivative, Group of 5-FU+the combination of thymidine derivative and uridine derivative. […] adding a solution of 5-FU and a solution of thymidine derivative (the final concentrations of 5-FU and thymidine derivative are shown in Table 3, the solution of thymidine is an aqueous solution, while the solutions of thymidine derivatives are all DMSO solutions); Group of 5-FU+the combination of thymidine derivative and uridine derivative: adding a solution of 5-FU and a mixed solution of thymidine derivative and uridine derivative (the final concentrations of the solution of 5-FU and the mixed solution of thymidine derivative+uridine derivative are shown in Table 3, the solution of thymidine is an aqueous solution, while the mixed solutions of thymidine derivative+uridine derivative are all DMSO solutions); Group of blank solvent control: adding the same type of solution as those of the corresponding Group of 5-FU or Group of 5-FU+thymidine derivative (or the mixed solution of thymidine derivative+uridine derivative) in equal volume. Group of blank solvent control was used as control to exclude the influence of the solvents in Group of 5-FU and Group of 5-FU+thymidine derivative (or the mixed solution of thymidine derivative+uridine derivative) on the results. After additional 48 hours of culture, a Cell Counting Kit-8 (CCK-8) detection kit (C0037, purchased from Shanghai Beyotime Biotechnology) is used to determine the cell survival rate, thereby calculating the proliferative toxicity of 5-Fu/5-DFUR on cells and the relieving effect of the thymidine derivative (or the mixed solution of thymidine derivative+uridine derivative) on the proliferative toxicity. Using GraphPad Prism 6.0 software, the results were statistically analyzed by t-test and plotted.
# (§1) Table 3 lists the combinations of 5-FU and thymidine derivative (or the mixed solution of thymidine derivative+uridine derivative), and the corresponding experimental results (wherein the data in the column of cell survival indicate the corresponding increased percentage of the cell survivals of Group of 5-FU+thymidine derivative or Group of 5-FU+the combination of thymidine derivative and uridine derivative compared with the Group of 5-FU). FIGS. 3-10 list the experimental results of several representative compounds.
# The effect of thymidine derivative or a combination of thymidine derivative and uridine derivative on relieving the proliferative toxicity of a chemotherapeutical drug (5-FU) to HaCaT cells was tested according to the method in Examples 2-29. The test thymidine derivative or the combination of thymidine derivative and uridine derivative, as well as the final concentration of the test compounds were shown in Table 7.
# as §1, with “7” for “3”, “15-21” for “3-10”, “exemplary” for “representative”
row,SMILES,activation at 1 µM [%]
1,Cc1cn([C@H]2C[C@H](OC(=O)C3CCCC3)[C@@H](COC(=O)C3CCCC3)O2)c(=O)[nH]c1=O [T8],15 to 25
2,Cc1cn([C@H]2C[C@H](OC(=O)C3CC3)[C@@H](COC(=O)C3CC3)O2)c(=O)[nH]c1=O [T9],-10 to -3
3,Cc1cn([C@H]2C[C@H](OC(=O)Cc3ccccc3)[C@@H](COC(=O)Cc3ccccc3)O2)c(=O)[nH]c1=O [T10],5 to 10
4,Cc1cn([C@H]2C[C@H](O)[C@@H](COC(=O)OC3CC3)O2)c(=O)[nH]c1=O [T11],-5 to 0
5,Cc1cn([C@H]2C[C@H](OC(=O)NC3CCCC3)[C@@H](COC(=O)NC3CCCC3)O2)c(=O)[nH]c1=O [T12],0 to 5
6,Cc1cn([C@H]2C[C@H](OC(=O)C(C)C)[C@@H](COC(=O)C(C)C)O2)c(=O)[nH]c1=O [T13],15 to 25

# Same assay, conditions: Homo sapiens, HaCaT; increase vs Group of 5-FU; 5-FU 20 μM; compound 2 μM; 48 h; read-out: Cell Survival Rate
row,SMILES,activation at 2 µM [%]
1,Cc1cn([C@H]2C[C@H](OC(=O)Cc3ccccc3)[C@@H](COC(=O)Cc3ccccc3)O2)c(=O)[nH]c1=O [T10],14 to 22

# Same assay, conditions: Homo sapiens, HaCaT; increase vs Group of 5-FU; 5-FU 20 μM; compound 5 μM; 48 h; read-out: Cell Survival Rate
row,SMILES,activation at 5 µM [%]
1,Cc1cn([C@H]2C[C@H](OC(=O)C3CCCC3)[C@@H](COC(=O)C3CCCC3)O2)c(=O)[nH]c1=O [T8],27 to 37
2,Cc1cn([C@H]2C[C@H](OC(=O)Cc3ccccc3)[C@@H](COC(=O)Cc3ccccc3)O2)c(=O)[nH]c1=O [T10],35 to 45
3,Cc1cn([C@H]2C[C@H](O)[C@@H](COC(=O)OC3CC3)O2)c(=O)[nH]c1=O [T11],11 to 16

# Same assay, conditions: Homo sapiens, HaCaT; increase vs Group of 5-FU; 5-FU 20 μM; compound 10 μM; 48 h; read-out: Cell Survival Rate
row,SMILES,activation at 10 µM [%]
1,Cc1cn([C@H]2C[C@H](OC(=O)C3CCCC3)[C@@H](COC(=O)C3CCCC3)O2)c(=O)[nH]c1=O [T8],35 to 45
2,Cc1cn([C@H]2C[C@H](OC(=O)C3CC3)[C@@H](COC(=O)C3CC3)O2)c(=O)[nH]c1=O [T9],10 to 18
3,Cc1cn([C@H]2C[C@H](OC(=O)Cc3ccccc3)[C@@H](COC(=O)Cc3ccccc3)O2)c(=O)[nH]c1=O [T10],60 to 70
4,Cc1cn([C@H]2C[C@H](O)[C@@H](COC(=O)OC3CC3)O2)c(=O)[nH]c1=O [T11],27 to 33
5,Cc1cn([C@H]2C[C@H](OC(=O)NC3CCCC3)[C@@H](COC(=O)NC3CCCC3)O2)c(=O)[nH]c1=O [T12],9 to 16
6,Cc1cn([C@H]2C[C@H](OC(=O)C(C)C)[C@@H](COC(=O)C(C)C)O2)c(=O)[nH]c1=O [T13],40 to 50

# Same assay, conditions: Homo sapiens, HaCaT; increase vs Group of 5-FU; 5-FU 20 μM; compound 20 μM; 48 h; read-out: Cell Survival Rate
row,SMILES,activation at 20 µM [%]
1,Cc1cn([C@H]2C[C@H](OC(=O)Cc3ccccc3)[C@@H](COC(=O)Cc3ccccc3)O2)c(=O)[nH]c1=O [T10],65 to 75

# Same assay, conditions: Homo sapiens, HaCaT; increase vs Group of 5-FU; 5-FU 20 μM; compound 50 μM; 48 h; read-out: Cell Survival Rate
row,SMILES,activation at 50 µM [%]
1,Cc1cn([C@H]2C[C@H](OC(=O)C3CCCC3)[C@@H](COC(=O)C3CCCC3)O2)c(=O)[nH]c1=O [T8],32 to 39
2,Cc1cn([C@H]2C[C@H](OC(=O)C3CC3)[C@@H](COC(=O)C3CC3)O2)c(=O)[nH]c1=O [T9],24 to 31
3,Cc1cn([C@H]2C[C@H](OC(=O)Cc3ccccc3)[C@@H](COC(=O)Cc3ccccc3)O2)c(=O)[nH]c1=O [T10],65 to 75
4,Cc1cn([C@H]2C[C@H](O)[C@@H](COC(=O)OC3CC3)O2)c(=O)[nH]c1=O [T11],35 to 45

# Same assay, conditions: Homo sapiens, HaCaT; increase vs Group of 5-FU; 5-FU 20 μM; compound 100 μM; 48 h; read-out: Cell Survival Rate
row,SMILES,activation at 100 µM [%]
1,Cc1cn([C@H]2C[C@H](OC(=O)C3CCCC3)[C@@H](COC(=O)C3CCCC3)O2)c(=O)[nH]c1=O [T8],40 to 47
2,Cc1cn([C@H]2C[C@H](O)[C@@H](COC(=O)OC3CC3)O2)c(=O)[nH]c1=O [T11],38 to 45
3,Cc1cn([C@H]2C[C@H](OC(=O)C(C)C)[C@@H](COC(=O)C(C)C)O2)c(=O)[nH]c1=O [T13],25 to 35

# Same assay, conditions: Homo sapiens, HaCaT; increase vs Group of 5-FU; 5-FU 20 μM; compound 200 μM; 48 h; read-out: Cell Survival Rate
row,SMILES,activation at 200 µM [%]
1,Cc1cn([C@H]2C[C@H](OC(=O)C3CCCC3)[C@@H](COC(=O)C3CCCC3)O2)c(=O)[nH]c1=O [T8],3 to 9
2,Cc1cn([C@H]2C[C@H](OC(=O)C3CC3)[C@@H](COC(=O)C3CC3)O2)c(=O)[nH]c1=O [T9],27 to 34
3,Cc1cn([C@H]2C[C@H](O)[C@@H](COC(=O)OC3CC3)O2)c(=O)[nH]c1=O [T11],38 to 46

# Same assay, conditions: Homo sapiens, HaCaT; increase vs Group of 5-FU; 5-FU 20 μM; compound 500 μM; 48 h; read-out: Cell Survival Rate
row,SMILES,activation at 500 µM [%]
1,Cc1cn([C@H]2C[C@H](OC(=O)C3CC3)[C@@H](COC(=O)C3CC3)O2)c(=O)[nH]c1=O [T9],30 to 38
2,Cc1cn([C@H]2C[C@H](O)[C@@H](COC(=O)OC3CC3)O2)c(=O)[nH]c1=O [T11],40 to 50

# Same assay, conditions: Homo sapiens, HaCaT; increase vs Group of 5-FU; 5-FU 20 μM; compound 1000 μM; 48 h; read-out: Cell Survival Rate
row,SMILES,activation at 1000 µM [%]
1,Cc1cn([C@H]2C[C@H](OC(=O)C3CC3)[C@@H](COC(=O)C3CC3)O2)c(=O)[nH]c1=O [T9],35 to 40
2,Cc1cn([C@H]2C[C@H](O)[C@@H](COC(=O)OC3CC3)O2)c(=O)[nH]c1=O [T11],7 to 14

# Same assay, conditions: Homo sapiens, HaCaT; increase vs Group of 5-FU; 5-FU 20 μM; compound 1500 μM; 48 h; read-out: Cell Survival Rate
row,SMILES,activation at 1500 µM [%]
1,Cc1cn([C@H]2C[C@H](OC(=O)C3CC3)[C@@H](COC(=O)C3CC3)O2)c(=O)[nH]c1=O [T9],13 to 20
